Assay results as given in ChEMBL document CHEMBL1201862, “PubChem BioAssay data set” (2004).
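In this assay, cells in 96-well plates receive the compound at five concentrations for 48 hours. Endpoints are linearly interpolated between the surrounding concentrations. At the GI50, growth is halved.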 Active and inactive are the calls of the source. Rule as the data show it: active = GI50 up to about 1.1 µM and inactive = higher.

Key:
Assay in all cases: NCI-60 cell line screen, 48 h
A498 = tested on: A498
CAKI-1 = tested on: CAKI-1
DU-145 = tested on: DU-145
HOP-62 = tested on: HOP-62
Hs-578T = tested on: Hs-578T
IGROV-1 = tested on: IGROV-1
K562 = tested on: K562
MCF7 = tested on: MCF7
NCI-H226 = tested on: NCI-H226
NCI-H460 = tested on: NCI-H460
SF-295 = tested on: SF-295
SF-539 = tested on: SF-539
SK-MEL-2 = tested on: SK-MEL-2
SK-OV-3 = tested on: SK-OV-3
SN12C = tested on: SN12C
SNB-19 = tested on: SNB-19
U-251 = tested on: U-251
UACC-62 = tested on: UACC-62
EKVX = tested on: EKVX
LOX IMVI = tested on: LOX IMVI

Row | Structure (SMILES) | GI50 (A498) | GI50 (CAKI-1) | GI50 (DU-145) | GI50 (HOP-62) | GI50 (Hs-578T) | GI50 (IGROV-1) | GI50 (K562) | GI50 (MCF7) | GI50 (NCI-H226) | GI50 (NCI-H460) | GI50 (SF-295) | GI50 (SF-539) | GI50 (SK-MEL-2) | GI50 (SK-OV-3) | GI50 (SN12C) | GI50 (SNB-19) | GI50 (U-251) | GI50 (UACC-62) | GI50 (EKVX) | GI50 (LOX IMVI)
1 | O=C(N/N=C/c1ccc(O)cc1)NNCCO | > 100 µM (inactive) | > 100 µM (inactive) | > 100 µM (inactive) | > 100 µM (inactive) | > 100 µM (inactive) | > 100 µM (inactive) | > 100 µM (inactive) | > 100 µM (inactive) | > 100 µM (inactive) | > 100 µM (inactive) | > 100 µM (inactive) | > 100 µM (inactive) | > 100 µM (inactive) | > 100 µM (inactive) | > 100 µM (inactive) | > 100 µM (inactive) | > 100 µM (inactive) | > 100 µM (inactive) | – | –
2 | CCOC(=O)c1c(SC(=O)c2cc(OC)c(OC)c(OC)c2)n(-c2ccccc2)c(=S)n(-c2ccccc2)c1=O | > 100 µM (inactive) | > 100 µM (inactive) | > 100 µM (inactive) | > 100 µM (inactive) | > 100 µM (inactive) | > 100 µM (inactive) | > 100 µM (inactive) | > 100 µM (inactive) | > 100 µM (inactive) | > 100 µM (inactive) | > 100 µM (inactive) | > 100 µM (inactive) | – | > 100 µM (inactive) | > 100 µM (inactive) | > 100 µM (inactive) | > 100 µM (inactive) | > 100 µM (inactive) | > 100 µM (inactive) | > 100 µM (inactive)
3 | COc1ccc2c(c1)C1OCCNC1CC2 (stereo not given) | 40.6 µM (inactive) | > 100 µM (inactive) | > 100 µM (inactive) | > 100 µM (inactive) | > 100 µM (inactive) | > 100 µM (inactive) | > 100 µM (inactive) | > 100 µM (inactive) | > 100 µM (inactive) | – | > 100 µM (inactive) | > 100 µM (inactive) | > 100 µM (inactive) | > 100 µM (inactive) | > 100 µM (inactive) | > 100 µM (inactive) | > 100 µM (inactive) | > 100 µM (inactive) | > 100 µM (inactive) | > 100 µM (inactive)
4 | Cc1ccc(C2=Nn3c(nc4sc(C)c(C)c4c3=O)SC2)cc1 | > 100 µM (inactive) | > 100 µM (inactive) | > 100 µM (inactive) | 64.1 µM (inactive) | > 100 µM (inactive) | > 100 µM (inactive) | > 100 µM (inactive) | > 100 µM (inactive) | > 100 µM (inactive) | > 100 µM (inactive) | > 100 µM (inactive) | > 100 µM (inactive) | – | > 100 µM (inactive) | > 100 µM (inactive) | – | > 100 µM (inactive) | > 100 µM (inactive) | > 100 µM (inactive) | > 100 µM (inactive)
5 | S=C(N1CCN(c2ccccc2)CC1)N1CCN(c2ccccc2)CC1 | > 100 µM (inactive) | > 100 µM (inactive) | > 100 µM (inactive) | > 100 µM (inactive) | > 100 µM (inactive) | 90.8 µM (inactive) | > 100 µM (inactive) | > 100 µM (inactive) | 94.6 µM (inactive) | > 100 µM (inactive) | 52.1 µM (inactive) | – | > 100 µM (inactive) | > 100 µM (inactive) | > 100 µM (inactive) | > 100 µM (inactive) | > 100 µM (inactive) | > 100 µM (inactive) | > 100 µM (inactive) | –
6 | OCC(O)C(O)C(C=NNc1ncnc2ccc(Br)cc12)=NNc1ncnc2ccc(Br)cc12 (stereo not given) | 4.23 µM (inactive) | 0.83 µM (active) | 1.34 µM (inactive) | 2.64 µM (inactive) | 9.62 µM (inactive) | 0.726 µM (active) | 2.25 µM (inactive) | 0.378 µM (active) | 1.67 µM (inactive) | – | 3.25 µM (inactive) | 1.94 µM (inactive) | 2.3 µM (inactive) | 1.85 µM (inactive) | 2.39 µM (inactive) | 2.17 µM (inactive) | 1.75 µM (inactive) | – | 0.406 µM (active) | 0.745 µM (active)
7 | CC(=O)O[C@H]1CC[C@@]2(C)C(=CC[C@@H]3[C@@H]2CC[C@]2(C)c4c(C)n[nH]c4C[C@@H]32)C1 | 20.3 µM (inactive) | 16.8 µM (inactive) | 14.2 µM (inactive) | 21.1 µM (inactive) | 17.6 µM (inactive) | 20.8 µM (inactive) | 2.54 µM (inactive) | 11.5 µM (inactive) | 16.5 µM (inactive) | 15.6 µM (inactive) | 20.4 µM (inactive) | – | – | 26.9 µM (inactive) | 19.4 µM (inactive) | 19.5 µM (inactive) | 15.3 µM (inactive) | 12 µM (inactive) | 17.9 µM (inactive) | 31.5 µM (inactive)
8 | COc1cc2c(cc1C1COc3cc4occc4cc3C1=O)OCO2 (stereo not given) | 31.8 µM (inactive) | 67 µM (inactive) | > 100 µM (inactive) | 40.3 µM (inactive) | 28.1 µM (inactive) | 63 µM (inactive) | – | 17.4 µM (inactive) | 25.7 µM (inactive) | – | 53.8 µM (inactive) | 35.6 µM (inactive) | > 100 µM (inactive) | 34.4 µM (inactive) | > 100 µM (inactive) | 30.1 µM (inactive) | 76 µM (inactive) | > 100 µM (inactive) | 87.3 µM (inactive) | > 100 µM (inactive)
9 | CC(C)(C)OC(=O)NC(Cc1ccc(O)cn1)C(N)=O (stereo not given) | > 100 µM (inactive) | > 100 µM (inactive) | > 100 µM (inactive) | > 100 µM (inactive) | > 100 µM (inactive) | > 100 µM (inactive) | – | > 100 µM (inactive) | > 100 µM (inactive) | > 100 µM (inactive) | > 100 µM (inactive) | > 100 µM (inactive) | – | – | > 100 µM (inactive) | > 100 µM (inactive) | > 100 µM (inactive) | – | > 100 µM (inactive) | > 100 µM (inactive)
10 | N#Cc1cnc(-n2[nH]c3c(c2=O)CCCC3)[nH]c1=O | 59 µM (inactive) | 39.2 µM (inactive) | 64.1 µM (inactive) | – | > 100 µM (inactive) | > 100 µM (inactive) | 69.8 µM (inactive) | 39.8 µM (inactive) | 47.8 µM (inactive) | 36.5 µM (inactive) | 40.3 µM (inactive) | 43.9 µM (inactive) | 71.3 µM (inactive) | 75.3 µM (inactive) | 44.2 µM (inactive) | > 100 µM (inactive) | 58.6 µM (inactive) | 38.6 µM (inactive) | 37.6 µM (inactive) | –
11 | COc1cccc(/C=C2/Sc3scc(-c4ccccc4)[n+]3C2=O)c1O | – | 21.3 µM (inactive) | 22.1 µM (inactive) | 23.8 µM (inactive) | 42.7 µM (inactive) | 15.2 µM (inactive) | – | 15.5 µM (inactive) | 19.4 µM (inactive) | 17.3 µM (inactive) | 37.3 µM (inactive) | 16.1 µM (inactive) | 23.3 µM (inactive) | 22.3 µM (inactive) | 17.9 µM (inactive) | 21.3 µM (inactive) | 19.6 µM (inactive) | 15.5 µM (inactive) | 19.2 µM (inactive) | 16.2 µM (inactive)
12 | O=C(O)/C=C/C(=O)N1Cc2cc3ccccc3nc2C1 | – | > 100 µM (inactive) | > 100 µM (inactive) | > 100 µM (inactive) | > 100 µM (inactive) | > 100 µM (inactive) | > 100 µM (inactive) | > 100 µM (inactive) | > 100 µM (inactive) | > 100 µM (inactive) | > 100 µM (inactive) | > 100 µM (inactive) | > 100 µM (inactive) | > 100 µM (inactive) | > 100 µM (inactive) | > 100 µM (inactive) | > 100 µM (inactive) | > 100 µM (inactive) | > 100 µM (inactive) | > 100 µM (inactive)
13 | Cc1c2c(OCC(O)CN3CCN(c4ccccc4)CC3)nn(C)c(=O)c2c(C)n1-c1ccccc1 (stereo not given) | 20.3 µM (inactive) | 31.6 µM (inactive) | 37.9 µM (inactive) | 39.6 µM (inactive) | 24.4 µM (inactive) | 35.2 µM (inactive) | 27 µM (inactive) | 18.4 µM (inactive) | 23.2 µM (inactive) | 25 µM (inactive) | 21.5 µM (inactive) | 19.2 µM (inactive) | 17.9 µM (inactive) | 43 µM (inactive) | 18.5 µM (inactive) | 34.3 µM (inactive) | 16.6 µM (inactive) | 17.1 µM (inactive) | 34.8 µM (inactive) | –
14 | COC1/C=C/O[C@@]2(C)Oc3c(C)c(O)c4c(O)c(cc(O)c4c3C2=O)NC(=O)/C(C)=C\C=C\[C@H](C)C(O)[C@@H](C)[C@@H](O)[C@@H](C)[C@H](OC(C)=O)[C@@H]1C (stereo not given in full) | 38.2 µM (inactive) | 37.9 µM (inactive) | 24 µM (inactive) | 117 µM (inactive) | 33 µM (inactive) | 22.7 µM (inactive) | 9.89 µM (inactive) | 10.2 µM (inactive) | – | – | 94.8 µM (inactive) | 25.9 µM (inactive) | 13.8 µM (inactive) | 110 µM (inactive) | 14.1 µM (inactive) | 82.2 µM (inactive) | 44.2 µM (inactive) | 18.1 µM (inactive) | – | 14 µM (inactive)
15 | CCCCCC(=O)N[C@@H](c1ccccc1)C(O)C(=O)OC1C[C@@]2(O)C(OC(=O)c3ccccc3)C3[C@](C)(C(=O)[C@H](O)C(=C1C)C2(C)C)C(OC1OCC(O)C(O)C1O)C[C@H]1OC[C@@]31OC(C)=O (stereo not given in full) | 25.5 µM (inactive) | – | 2.88 µM (inactive) | 5.05 µM (inactive) | 0.198 µM (active) | 3.99 µM (inactive) | 0.966 µM (active) | 1.02 µM (active) | > 100 µM (inactive) | 0.757 µM (active) | 21.2 µM (inactive) | 0.494 µM (active) | – | 3.04 µM (inactive) | 3.54 µM (inactive) | 4.91 µM (inactive) | 1.64 µM (inactive) | 3.57 µM (inactive) | > 64.7 µM (inactive) | –
